Results as given in publication PMC11404609, “Gut microbiota-mediated C-sulfonate metabolism impairs the bioavailability and anti-cholestatic efficacy of andrographolide” (Gut Microbes, 2024).
“And” between values parts separate entries of the source, which are not always exact repeats. Equal entries are not always repeated.

Tests used:
[1] = Plasma pharmacokinetics of AP after oral administration in rats; type: in vivo; conditions: for AUC(0-t) / Cmax / Tmax / half-life / AUC(0-inf): rat, plasma, po, 120 mg/kg, mean ± SD; for AUC(0-t) / Cmax / Tmax / half-life / AUC(0-inf) / Fr (%) relative oral bioavailability: AP 120 mg/kg oral gavage
Experimental: Control and ABX rats were orally administered a single dose of AP at 120 mg/kg. Blood samples (500 μL) were collected at predetermined time intervals (0, 5, 10, 20, 30, 40, 60, 90, 120, 180, 240, 360, and 480 min). In some cases, APS reductase inhibitor bromocriptine mesylate (20 mg/kg, p.o.) or Na2SO4 (200 mg/kg, p.o.) was given to rats 1 week before AP treatment.
The pharmacokinetic parameters of AP including peak time (Tmax), maximum concentration (Cmax), area under the curve from zero time to the last time point measured (AUC0-t), area under the curve from zero time to infinity (AUC0-∞), and elimination half-life (t1/2) were estimated using DAS 2.0 software (Shanghai, China). The relative oral bioavailability (Fr) of AP was calculated by the following equation: Fr(%)=AUC0−∞of ABX/Inhibitor/SO42−/D.piger/AUC0−∞of Control×100%
An ACQUITY^TM UPLC-MS/MS system equipped with an ACQUITY^TM UPLC BEH C18 Column (50 × 2.1 mm I.D., 1.7 μm, Waters, Milford, MA, USA) was utilized for the quantification of AP and APM as previously described.[47] Briefly, the detection samples (50 μL) were mixed with 50 μL of IS (50 ng/mL). AP and APM were extracted by 400 μL cold methanol. Supernatants were dried under nitrogen stream. Then, the residue was dissolved with 50% methanol in water, centrifuged for 30 min at 13,000 rpm, and 10 µL of the supernatant was subjected to UPLC-MS/MS analysis. The mobile phases consisted of eluent A (water) and eluent B (methanol) with a gradient elution as follows: 0–0.8 min, 10% B; 0.8–1.2 min, 10–90% B; 1.2–5.0 min, 90% B; 5.0–5.5 min, 90–10% B; 5.5–7.0 min, 10% B. The flow rate was 0.3 mL/min and the injection volume of all samples was 10 μL. The quantification of AP, APM and IS was performed by UPLC-MS/MS using an MRM method with the transitions of m/z 349.1→m/z 287.2 for AP, m/z 413.2→m/z 287.2 for APM, m/z 269→m/z 133 for IS.

[2] = tested on: FXR downstream bile acid transporters; test: Expression of FXR downstream bile acid transporters in liver (qPCR, Western blot); type: in vivo, mice; conditions: AP 200 mg/kg i.p.
Experimental: Total RNA from frozen livers of Vehicle, AP (200 mg/kg, i.p.), ANIT (50 mg/kg), and ANIT+AP (200 mg/kg, i.p.) groups was extracted using the Animal Total RNA Isolation Kit (FOREGENE, China). cDNA was synthesized using a Color Reverse Transcription Kit (EZBioscience, Roseville, CA, USA). qPCR was performed using SYBR green/Rox qPCR master mix (EZBioscience, Roseville, CA, USA), according to the manufacturer’s instruction. The expression of target genes was normalized to β-actin, and fold changes were calculated using 2^–ΔΔCT method. For bacterial identification, genomic DNA of fecal flora was isolated using the TIANamp Stool DNA Kit (TIANGEN, Beijing, China) and qPCR was performed. The relative abundance and expression of Desulfovibrio spp., D. piger and APS reductase were normalized to the amounts of total bacteria (16S). All primers were synthesized by Tsingke Biotechnology Co., Ltd. (Beijing, China) and were listed in Supplementary Table S1.
Liver tissue from Vehicle, AP (200 mg/kg, i.p.), ANIT (50 mg/kg), and ANIT+AP (200 mg/kg, i.p.) groups was homogenized in RIPA buffer (Thermo Scientific). […] The collected supernatant was quantified using BCA protein assay kit (Epizyme). […] To visualize the protein bands, the membrane was reacted with Immobilon Forte Western HRP (Millipore) substrate solution for 2 min and analyzed using Tanon5200 imager. […]

[3] = tested on: NF-κB and JNK/MAPK pathways; test: RNA sequencing of liver: NF-κB and JNK/MAPK pathway genes; type: in vivo, mice; conditions: ANIT+AP (200 mg/kg, i.p.) vs ANIT
Experimental: RNA in liver tissue was isolated from mice treated with ANIT and ANIT+AP (200 mg/kg, i.p.) and purified by TRIzol (Invitrogen, CA). The isolated RNA was quantified using Qubit 2.0 (Thermo Fisher Scientific, USA) following the manufacturer’s protocol. Libraries were prepared using the NEBNext® UltraTM RNA Library Prep Kit for Illumina® (NEB, USA) and sequenced on a Novaseq 6000 (Illumina, USA) at Novogene’s deep sequencing facility. Mapped reads from each sample were assembled using StringTie (v1.3.3b) in a reference-based approach, and featureCounts was used to quantify mapped reads. Differential expression analysis of two conditions/groups was performed using the DESeq2 R package (1.20.0).

[4] = SD, rats, Control group (Table 1), n = 4
[5] = Sprague-Dawley (SD), rats, Control group (Table 2), n = 4
[6] = Sprague-Dawley (SD), rats, Inhibitor group (bromocriptine mesylate 20 mg/kg p.o. 1 week before), n = 4
[7] = Sprague-Dawley (SD), rats, SO4^2- group (Na2SO4 200 mg/kg p.o. 1 week before), n = 5
[8] = Sprague-Dawley, rats, Control group (Table 2), n = 4
[9] = Sprague-Dawley, rats, Inhibitor group (bromocriptine mesylate 20 mg/kg p.o. 1 week before), n = 4
[10] = Sprague-Dawley, rats, SO4^2- group (Na2SO4 200 mg/kg p.o. 1 week before), n = 5

enhancement in the relative oral bioavailability of AP ([1]; ABX-treated rats vs Control): 70.11% and 70%
AUC(0-t) ([1]; SD, rats, ABX group, n = 4): 4430 ng·h/mL
Cmax ([1]; SD, rats, ABX group, n = 4): 1330 ± 250 ng/mL
Tmax ([1]; SD, rats, ABX group, n = 4): 0.708 h
half-life ([1]; SD, rats, ABX group, n = 4): 2.31 ± 0.734 h
AUC(0-t) [1, 4]: 2360 ng·h/mL
Cmax [1, 4]: 690 ± 190 ng/mL
Tmax [1, 4]: 0.833 h
half-life [1, 4]: 3.07 ± 0.928 h
AUC(0-inf) [1, 5]: 3690 ng·h/mL
AUC(0-t) [1, 5]: 3440 ng·h/mL
AUC(0-inf) [1, 6]: 8020 ng·h/mL
AUC(0-t) [1, 6]: 7520 ng·h/mL
AUC(0-inf) [1, 7]: 1870 ng·h/mL
AUC(0-t) [1, 7]: 1360 ng·h/mL
half-life [1, 7]: 4.38 ± 3.23 h
AUC(0-inf) ([1]; Sprague-Dawley, rats, ABX group, n = 4): 5110 ng·h/mL
AUC(0-inf) ([1]; Sprague-Dawley, rats, Control group (Table 1), n = 4): 3000 ng·h/mL
Cmax [1, 8]: 1420 ± 710 ng/mL
Tmax [1, 8]: 0.5 h
half-life [1, 8]: 2.04 ± 0.397 h
Cmax [1, 9]: 2750 ± 710 ng/mL
Tmax [1, 9]: 0.583 h
half-life [1, 9]: 1.82 ± 0.589 h
Cmax [1, 10]: 490 ± 190 ng/mL
Tmax [1, 10]: 0.533 h
Fr (%) relative oral bioavailability ([1]; rats, ABX group vs Control (AUC0-∞ ratio)): 170.11%
Fr (%) relative oral bioavailability ([1]; rats, Inhibitor group vs Control (AUC0-∞ ratio)): 217.24%
Fr (%) relative oral bioavailability ([1]; rats, SO4^2- group vs Control (AUC0-∞ ratio)): 50.70%
increase in AP bioavailability ([1]; rats, inhibition of APS reductase by bromocriptine mesylate): 117.24% and 117%
reduction in AP bioavailability ([1]; rats, treatment of Na2SO4): 49.30%
SMILES: C=C1CC[C@@H]2[C@](C)(CO)[C@H](O)CC[C@@]2(C)[C@@H]1C/C=C1/C(=O)OC[C@H]1O [AP, Andrographolide]
expression of FXR downstream bile acid transporters (Mrp2, Mrp3, Mrp4, Oatp1, and Ntcp, except for Bsep, Ost-α and Ost-β) [2]: heightened the expression
clustering of NF-κB pathway genes and JNK/MAPK pathway genes [3]: no significant differences
